Laboratory results taken from patent US20040002450A1, “Y17 - isolated molecules comprising epitopes containing sulfated moieties, antibodies to such epitopes, and uses thereof” (priority 2000, published 2004).
Non-standard residues stand in square brackets, D forms with d. No end group written: not given here. sY = N[C@@H](Cc1ccc(OS(=O)(=O)O)cc1)C(=O)O

Experiments:
[1] = system: KG-1 cells; assay: AML KG-1 model in SCID/NOD mice; type: in vivo
Description: The in vivo mouse model for human AML uses SCID/NOD mice (Jackson Laboratories) inoculated with KG-1 cells derived from a human AML cell line.
In a first experiment, NOD/SCID mice were pretreated with 100 mg/kg CYTOXAN®. Four days post CYTOXANT injection, KG-1 cells were injected intravenously into the tail vein of six groups of mice. (Table N, Groups 2 and 5-9). One group of mice (Table N, Group 1) was injected with PBS alone (control).
Beginning 19 days post KG-1 injection mice were treated with: CONY1, Doxorubicin, CONY1-Doxorubicin conjugate, or Mylotarg®. (Mylotarg® is a monoclonal antibody (anti CD33) conjugated chemically to calcheamicin recently approved by the FDA for treatment of AML patients age 60 and over in a first relapse.) Mice were treated once or three times per week for three weeks. One group (group 2) of KG-1 inoculated mice Were left untreated. (Table N). Two other groups of mice (groups 3 and 4) were injected with KG-1 cells that were previously incubated with CONY1 or 181-scFv (a negative, non-specific control antibody) in serum free RPMI containing 1% BSA at 4° C. for 1 h. The antibodies were used at a concentration of 0.25 mg scFv/10^8 cells (75 μg/mouse). Before injection into the mice the preincubated KG-1 cells were washed are resuspended in RPMI. The KG-1 cells in RPMI were inoculated into mice at a concentration of 75 μg scFv/0.2 ml RPMI per mouse. Group 3 mice were inoculated with KG-1+CONY1, and group 4 mice were inoculated with KG-1+181-scFv. (Table N). […]
Mice were sacrificed from 60 to 65 days post cell injection. Bone marrow and blood samples were analyzed by flow cytometry using mouse anti human CD34-FITC (IQP 144F) (or anti CD44-FITC (MCA89F, Serotec)) and Y1-Biotin/SAV-PE. […]
An additional experiment was performed in which SCID-NOD mice were i.v. injected with 3×10^4 MOLT-4 cells/mouse 5 days post treatment with cyclophosphamide. […] Bone marrow was extracted and analyzed by FACS analysis using a commercially available antiCD44 antibody for the detection of MOLT-4 cells in the mice bone marrow cell population.

[2] = system: Y1 binding to washed platelets; assay: Comparative FACS: effect of synthetic GPIbα peptides on Y1 binding to washed platelets; parameters: species or system human
Description: (§1) ELISA assays were developed to evaluate the effect of the GPIb derived synthetic peptides on the binding of Y1 to purified glycocalicin. In addition, FACS analysis using washed platelets was carried out. To evaluate the importance of sulfated tyrosine within the Y1 binding site of GPIb, a competitive binding FACS analysis was used. Y1-scFv at a concentration of 1 μg was preincubated with different peptides at concentrations of 2.5 and 200 μM. After a preincubation for 30 minutes at room temperature the mixture was added to a tube containing ˜10^7 washed platelets and the binding of Y1 to the washed platelets was assessed using polyclonal rabbit anti-scFv-PE. The inhibitory effect of the peptides compared to control binding (Y1 alone) was evaluated by measuring the residual binding of Y1 to washed platelets. The peptides and the results are described in Table 1 and are similar to results that were observed using the same peptides in an ELISA assay (Table B). In both assays, a control level of Y1 binding was determined, as follows. A polystyrene microtiter maxisorb plate was coated with (a) purified glycocalicin or (b) washed platelets. After extensive washing, 0.5 μg/well of Y1 was added. The plate was then incubated with rabbit anti-scFv followed by addition of anti rabbit —HRP (horse radish peroxidase) and HRP substrate. The level of anti rabbit —HRP binding was measured by the intensity of the color produced, and the level of anti rabbit —HRP binding correlates with the level of binding of anti Y1-scFv and the level of binding of Y1. The optical density was measured at A405. Each sample was assayed in duplicate, and the average was calculated.

[3] = system: Y1 binding to purified glycocalicin; assay: ELISA: effect of synthetic GPIbα peptides on Y1 binding to purified glycocalicin; parameters: species or system human; settings: 0.25 μg/well Y1
Description: as §1, with “After extensive washing, 0.5 μg/well of Y1 was added.” left out
The effect of synthetic GPIbα peptides on Y1 binding to purified glycocalicin was evaluated by mixing varying concentrations of the peptides with a constant amount of Y1. After a preincubation for 30 minutes at room temperature, the mixture was added to a polystyrene microtiter maxisorb plate coated with purified glycocalicin, as described for evaluation of Y1 binding in the absence of peptides. The inhibitory effect of the peptides was evaluated by measuring the residual binding of Y1 to glycocalicin using rabbit anti Y1scFv and anti rabbit —HRP antibodies, as described for evaluation of Y1 binding in the absence of peptides. This study was performed with four peptides representing various subsets of the sequence 268 to 285 and a control peptide. Each peptide was tested at different concentrations: 200 μM, 25 μM, 2.5 μM, and 0.5 μM.

[4] = system: scFv Y1 binding to glycocalicin; assay: Competitive binding ELISA of sulfated peptides (scFv Y1 binding to immobilized glycocalicin); parameters: species or system human; settings: peptide 1, 10 and 100 μM, preincubated 10 minutes with scFv Y1
Description: A competitive binding ELISA assay was used to assess the importance of the presence and position of sulfated tyrosines to the binding of peptides to Y1.
Glycocalicin was immobilized on a Maxisorb plate. scFv Y1 was preincubated with a peptide of interest for 10 minutes at three different concentrations (1, 10 and 100 μM) in order to observe a dose response. (Table 12). After preincubation, the mixture (Y1+peptide) was added to the plate, and binding of scFv Y1 was assessed using polyclonal rabbit anti-VL, which recognizes the VL chain of scFv Y1, followed by anti-rabbit-HRP. In mixtures in which the peptide bound to scFv Y1, a decrease in the binding of scFv Y1 to glycocalicin compared to control binding was observed.

| Compound | KG-1 cells in bone marrow (in words) ([1]; 0.2 mg/kg, 1 time per week (group 9)) | development of the malignancy / prevalence of bone marrow cancer (in words) ([1]; additional experiment, day 60, CONY1 scFv 75 μg/mouse three times/week, Mylotarg 7 μg/mouse once a week) | Residual Binding of Y1 (% of baseline) (Geo Mean) ([2]; peptide 2.5 μM) | Residual Binding of Y1 (% of baseline) (Geo Mean) ([2]; peptide 200 μM) | Residual Binding of Y1 (% of baseline) ([3]; peptide 0.5 μM) | Residual Binding of Y1 (% of baseline) ([3]; peptide 2.5 μM) | Residual Binding of Y1 (% of baseline) ([3]; peptide 25 μM) | Residual Binding of Y1 (% of baseline) ([3]; peptide 200 μM) | inhibition of Y1 binding to glycocalicin (in words) [4] | percentage of KG-1 cells in bone marrow compared to untreated group 2 (in words) ([1]; 0.1 mg/kg free Doxorubicin, 3 times per week (group 6)) |
| --- | --- | --- | --- | --- | --- | --- | --- | --- | --- | --- |
| Mylotarg: monoclonal antibody (anti CD33) conjugated chemically to calcheamicin, FDA approved for AML | free of KG 1 cells | completely inhibited | – | – | – | – | – | – | – | – |
| GDEGDTDLY*DY*Y*P (GDEGDTDL[sY]D[sY][sY]P) [P-3-S, residues 268-280 of GPIbα, Y* sulfated tyrosine] | – | – | 82 % of baseline | 26 % of baseline | 80 % of baseline | 67 % of baseline | 21 % of baseline | – | – | – |
| GDEGDTDLY*DY*Y*PEEDTE (GDEGDTDL[sY]D[sY][sY]PEEDTE) [P-1-S, residues 268-285 of GPIbα, Y* sulfated tyrosine] | – | – | 41 % of baseline | 5 % of baseline | 89 % of baseline | 62 % of baseline | 25 % of baseline | 0 % of baseline | did inhibit | – |
| REEGRQHFFLLEGRSSYS [negative control peptide, reference compound] | – | – | 96 % of baseline | 119 % of baseline | 121 % of baseline | 100 % of baseline | 89 % of baseline | 85 % of baseline | – | – |
| TDLY*DY*Y*PEEDTE (TDL[sY]D[sY][sY]PEEDTE) [P-2-S, residues 273-285 of GPIbα, Y* sulfated tyrosine] | – | – | 61 % of baseline | 7 % of baseline | 78 % of baseline | 52 % of baseline | 15 % of baseline | – | – | – |
| COc1cccc2c1C(=O)c1c(O)c3c(c(O)c1C2=O)C[C@@](O)(C(=O)CO)C[C@@H]3O[C@H]1C[C@H](N)[C@H](O)[C@H](C)O1 [Doxorubicin] | – | – | – | – | – | – | – | – | – | statistically significant (p<0.05) lower percentage |
| GDEGDTDLYDYYPEEDTE [P-1, residues 268-285 of GPIbα, non-sulfated] | – | – | 106 % of baseline | 87 % of baseline | 88 % of baseline | 94 % of baseline | 71 % of baseline | 61 % of baseline | – | – |
